Results: US20070060620A1, “Use of RAR retinoid agonists to increase sperm count and sperm mobility in males” (priority 2005, published 2007)

Columns and labels:
[1] = plasma levels and half-life after clinical dosing with tazarotene; type: in vivo
Excerpt: Thus, tazarotene and other RAR-specific retinoids are used in the method of the present invention to help with male infertility that is due to low sperm counts and/or low sperm motility. Furthermore, retinoids such as tazarotene may be used in any situation in which couples are trying to conceive, where a boost to sperm production/motility could bring about an increase in the chances that a female could become pregnant. As a practical matter, since retinoids at doses likely to be effective in these circumstances are highly teratogenic, an unintended effect might arise from the transfer of the retinoid to a female in the ejaculate of the male. […] Thus, in a period of 3 days, levels of retinoid in plasma (and also in seminal fluid) would be less than 2%, and after about one week would be less than 0.01% of the original levels. Clinical dosing with tazarotene (eg at 3-6 mg) provide levels of tazarotenic acid (the major metabolite of tazarotene) in plasma of about 75-150 ng/mL study. Thus, in 3 days, plasma levels would be expected to drop to about 2-3 ng/mL (endogenous levels of retinoid agonists such as tretinoin, isotretinoin and 4-oxo-13-cis retinoic acid may easily total over 6 ng/mL). Sperm count and motility are likely to remain elevated for some time, since sperm maturation occurs over a period of 72-74 days.

[2] = phase 2 studies in patients with psoriasis and acne: systemic side-effect profile; type: in vivo, human; conditions: compared with acitretin/etretinate and isotretinoin
[3] = test system: sperm count and sperm motility; conditions: oral retinoids used for psoriasis or acne; cited from earlier work

Compound | levels of retinoid in plasma (and also in seminal fluid) relative to the original levels ([1]; after about one week of washout) | half-life ([1]; human, plasma, read-out: effective half-life in plasma) [h] | levels of retinoid in plasma (and also in seminal fluid) relative to the original levels ([1]; in a period of 3 days of washout) | systemic side-effect profile [2] | effect on sperm count and sperm motility [3]
CCOC(=O)c1ccc(C#Cc2ccc3c(c2)C(C)(C)CCS3)nc1 [tazarotene] | less than 0.01% | 7 to 12 | less than 2% | far better than those of acitretin/etretinate and isotretinoin | 
CCOC(=O)/C=C(C)/C=C/C=C(C)/C=C/c1c(C)cc(OC)c(C)c1C [etretinate] |  |  |  |  | increase in sperm count and sperm motility
COc1cc(C)c(/C=C/C(C)=C/C=C/C(C)=C/C(=O)O)c(C)c1C [acitretin] |  |  |  |  | increase in sperm count and sperm motility
CC1=C(/C=C/C(C)=C/C=C/C(C)=C\C(=O)O)C(C)(C)CCC1 [isotretinoin] |  |  |  |  | increase in sperm count and sperm motility
